Data on six compounds can be found in patent publication EP0490450A1, “Heterocyclic carboxylic esters, methods for their preparation and their use for the preparation of gastrointestinal medicines” (YAMANOUCHI EUROPE B.V., priority 1990, dated 1992).

The subject of this assay is Helicobacter pylori. The experiment in a line: Paper disc inhibition assay on blood agar plates (inhibition zone). Type of assay: cell-based. The procedure:
The test organisms used in the inhibition assay were fresh isolates of Helicobacter pylori from patients with duodenal ulcer or non-ulcer dyspepsia, except strain NCTC 11637 which originates from a deposit freely available to the public. NCTC 11637 is a metronidazole resistant strain. All strains were stored frozen. For each inhibition assay fresh strains were thawed in a waterbath at 37°C. Helicobacter pylori strains were incubated with shaking (150 rpm) for 48 hours in 10 ml brain heart infusion […] containing 7% fetal calf serum at 37°C under an atmosphere of 10% CO₂, 5% O₂ and 85% N₂. After washing with phosphate buffered saline and centrifugation the pellet was resuspended and diluted until a density of 10-20 nephelometric turbidity units was achieved and subsequently smeared on blood agar plates. A paper disc with a diameter of 7 mm was placed in the centre of the plate. The test compounds were dissolved in dimethylsulfoxide (DMSO) and 20 µl of these solutions were applied to the disc. After three days of culturing at 37°C under microaerophilic conditions the inhibition zone was measured in mm.
Table I. In vitro activity of the compounds according to the invention on Helicobacter pylori. Inhibition zones are given in mm, 7 mm means no activity.
Compound GBR 24156, an ester of penicillin V and metronidazole has, in a concentration of 1.7 µg/ml, been compared with the combination of single substances penicillin V and metronidazole, both in a concentration of 0.85 µg/ml.
Table II. In vitro activity of GBR 24156 compared to the activity of penicillin V and metronidazole on Helicobacter pylori. Inhibition zones are given in mm; 7 mm means no activity.

The mark [1] stands for this setting: Helicobacter pylori, 72 h, H. pylori strain A85, concentration 50 µg/ml, 7 mm means no activity.
The mark [2] stands for this setting: Helicobacter pylori, 72 h, H. pylori strain C85, concentration 50 µg/ml, 7 mm means no activity.
The mark [3] stands for this setting: Helicobacter pylori, 72 h, H. pylori strain D9, concentration 50 µg/ml (20 µl on 7 mm disc), 7 mm means no activity.
Where [4] appears, read: Helicobacter pylori, 72 h, H. pylori strain D20, concentration 50 µg/ml, 7 mm means no activity.
The mark [5] stands for this setting: Helicobacter pylori, NCTC11637, 72 h, H. pylori strain NCTC 11637 (metronidazole resistant), concentration 50 µg/ml, 7 mm means no activity.
The mark [6] stands for this setting: Helicobacter pylori, 72 h, H. pylori strain A85, concentration 20 µg/ml, 7 mm means no activity.
The mark [7] stands for this setting: Helicobacter pylori, 72 h, H. pylori strain B104, concentration 20 µg/ml, 7 mm means no activity.
The mark [8] stands for this setting: Helicobacter pylori, 72 h, H. pylori strain C85, concentration 20 µg/ml, 7 mm means no activity.
[9] abbreviates: Helicobacter pylori, 72 h, H. pylori strain D9, concentration 20 µg/ml (20 µl on 7 mm disc), 7 mm means no activity.
[10] abbreviates: Helicobacter pylori, 72 h, H. pylori strain D20, concentration 20 µg/ml, 7 mm means no activity.
[11] abbreviates: Helicobacter pylori, 72 h, H. pylori strain D29, concentration 20 µg/ml, 7 mm means no activity.
Setting [12] is: Helicobacter pylori, NCTC11637, 72 h, H. pylori strain NCTC 11637 (metronidazole resistant), concentration 20 µg/ml, 7 mm means no activity.

In general, zone of inhibition refers to the size of the clear area around the sample on an inoculated plate. Regarding `Cc1ncc([N+](=O)[O-])n1CCOC(=O)[C@@H]1N2C(=O)[C@@H](NC(=O)COc3ccccc3)[C@H]2SC1(C)C` [GBR 24156, 2-(2-Methyl-5-nitroimidazol-1-yl)ethyl (3S,5R,6R)-2,2-dimethyl-6-phenoxy acetamidopenam-3-carboxylate], the “in vitro growth inhibition (in words)” value (Helicobacter pylori NCTC 11637, known for resistance against metronidazole) is “able to inhibit in vitro growth”. Also, the zone of inhibition at 50 µg/mL turned out to be 30 mm (Helicobacter pylori, 72 h, H. pylori strain 88-A-13, concentration 50 µg/ml, 7 mm means no activity); 60 mm under setting [1]; 42 mm (Helicobacter pylori, 72 h, H. pylori strain B104, concentration 50 µg/ml, 7 mm means no activity); 22 mm under setting [2]; 48 mm under setting [3]; 51 mm under setting [4]. The zone of inhibition at 50 µg/mL turned out to be 77 mm (Helicobacter pylori, 72 h, H. pylori strain D29, concentration 50 µg/ml, 7 mm means no activity) and 41 mm under setting [5]. Moreover, the zone of inhibition at 1.7 µg/mL (Helicobacter pylori, NCTC11637, 72 h, H. pylori strain NCTC 11637, concentration 1.7 µg/ml, 7 mm means no activity) amounted to 19 mm.

In the case of `Cc1ncc([N+](=O)[O-])n1CCOC(=O)COC(=O)[C@@H]1N2C(=O)[C@@H](NC(=O)COc3ccccc3)[C@H]2SC1(C)C` [GBR 24157, [2-(2-Methyl-5-nitroimidazol-1-yl)ethoxy] carbonylmethyl (3S,5R,6R)-2,2-dimethyl-6-phenoxyacetamidopenam-3-carboxylate], the zone of inhibition at 20 µg/mL reads like this: under setting [6], 10 mm; under setting [7], 11 mm; under setting [8], 14 mm; under setting [9], 28 mm; under setting [10], 24 mm; under setting [11], 13 mm. Moreover, the zone of inhibition at 20 µg/mL under setting [12] stood at 7 mm.

Take `Cc1ncc([N+](=O)[O-])n1CCOC(=O)OCOC(=O)[C@@H]1N2C(=O)[C@@H](NC(=O)COc3ccccc3)[C@H]2SC1(C)C` [GBR 24158, [2-(2-Methyl-5-nitroimidazol-1-yl)ethoxy]carbonyloxymethyl (3S,5R,6R)-2,2-dimethyl-6-phenoxyacetamidopenam-3-carboxylate]: the zone of inhibition at 20 µg/mL by setting is: under setting [6], 19 mm; under setting [7], 27 mm; under setting [8], 29 mm; under setting [9], 47 mm; under setting [10], 34 mm; under setting [11], 20 mm. Besides, the zone of inhibition at 20 µg/mL under setting [12] is 15 mm.

In the case of `Cc1ncc([N+](=O)[O-])n1CCOC(=O)C(C)(C)O/N=C(\C(=O)N[C@@H]1C(=O)N(S(=O)(=O)O)[C@H]1C)c1csc(N)n1` [GBR 24164], the zone of inhibition at 100 µg/mL (Helicobacter pylori, 72 h, H. pylori strain B104, concentration 100 µg/ml, 7 mm means no activity) amounted to 20 mm; the zone of inhibition at 100 µg/mL (Helicobacter pylori, 72 h, H. pylori strain C85, concentration 100 µg/ml, 7 mm means no activity) came out at 7 mm; the zone of inhibition at 100 µg/mL (Helicobacter pylori, 72 h, H. pylori strain D9, concentration 100 µg/ml (20 µl on 7 mm disc), 7 mm means no activity) came to 16 mm; the zone of inhibition at 100 µg/mL (Helicobacter pylori, 72 h, H. pylori strain D20, concentration 100 µg/ml, 7 mm means no activity) was determined as 7 mm; the zone of inhibition at 100 µg/mL (Helicobacter pylori, 72 h, H. pylori strain D29, concentration 100 µg/ml, 7 mm means no activity) was determined as 12 mm; the zone of inhibition at 100 µg/mL (Helicobacter pylori, NCTC11637, 72 h, H. pylori strain NCTC 11637 (metronidazole resistant), concentration 100 µg/ml, 7 mm means no activity) stood at 7 mm.

Consider `Cc1ncc([N+](=O)[O-])n1CCOC(=O)COC(=O)C(C)(C)O/N=C(\C(=O)N[C@@H]1C(=O)N(S(=O)(=O)O)[C@H]1C)c1csc(N)n1` [GBR 24165], for which the zone of inhibition at 50 µg/mL runs as follows: under setting [1], 29 mm; under setting [2], 10 mm; under setting [3], 36 mm; under setting [4], 12 mm; under setting [5], 33 mm.

As to `Cc1ncc([N+](=O)[O-])n1CCOC(=O)COC(=O)[C@@H]1N2C(=O)[C@@H](NC(=O)[C@H](N)c3ccc(O)cc3)[C@H]2SC1(C)C` [GBR 24208, [2-(2-Methyl-5-nitroimidazol-1-yl)ethoxy]carbonylmethyl(3S,5R,6R)-6-[(R)-2-amino-2-(4-hydroxyphenyl)acetamido]-2,2-dimethylpenam-3-carboxylate], the zone of inhibition at 268 µg/mL by setting is: (Helicobacter pylori, 72 h, H. pylori strain A85, concentration 268 µg/ml, 7 mm means no activity) 10 mm; (Helicobacter pylori, 72 h, H. pylori strain D9, concentration 268 µg/ml (20 µl on 7 mm disc), 7 mm means no activity) 15 mm; (Helicobacter pylori, NCTC11637, 72 h, H. pylori strain NCTC 11637 (metronidazole resistant), concentration 268 µg/ml, 7 mm means no activity) 10 mm.
